Patent US20210214303A1, “SCORPION VENOM BENZOQUINONE DERIVATIVES AND USES THEREOF” (priority 2018, published 2021)
Converted amounts (≈) assume the structure as drawn. “Also recorded” adds a separate entry of the source.

Tests used:
[1] = tested on: Mycobacterium tuberculosis multi-drug resistant (MDR) strain; experiment: microbe, parasite or virus in culture; assay type: cell-based
[2] = tested on: Mycobacterium tuberculosis Multi-Drug-Resistance (MDR) CIBIN99 strain; experiment: experimental model of progressive pulmonary tuberculosis; parameters: species or system BALB/c mice; settings: mouse, in vivo

| Structure (SMILES) | MIC [1] [µg/mL] | condition of infected mice / overall effect [2] | reduction of pneumonia (automated histomorphometry, lung surface affected by pneumonia) [2] [%] | tissue damage (pneumonia), histology [2] |
| --- | --- | --- | --- | --- |
| COC1=CC(=O)C(SC)=C(OC)C1=O [red 1,4 benzoquinone, 3,5-dimethoxy-2-(methylthio)cyclohexa-2,5-diene-1,4-dione] | > 160 | – | – | – |
| COC1=CC(=O)C(SC)=C(SC)C1=O [blue 1,4 benzoquinone, 5-methoxy-2,3-bis(methylthio)cyclohexa-2,5-diene-1,4-dione] | 4 (≈ 17.4 µM) | effective in vivo; also recorded: improvement by not losing weight and not showing piloerection; also recorded: marked improvement in their condition | 50 | less pneumonia; also recorded: clear decrease in tissue damage; also recorded: twofold decrease |
